Drawing on US10781185B2, “Heterocyclic compounds for the inhibition of PASK” (BioEnergenix LLC, priority 2009, dated 2020), this text covers IC50 for 28 compounds.

In experiment [1] the target is PASK (UniProt # Q96RG2; human recombinant N-terminal GST tagged construct, residues 879-1323) (Homo sapiens (Human), UniProt Q96RG2). The experiment can be described thus: PASK ATP Radiochemical Assay. It is filed as biochemical. Particulars: 33P-ATP radiochemical, Myelin Basic Protein substrate; read-out: IC50 Kinase Domain. The protocol:
PASK ATP Radiochemical Assay
Test compounds in DMSO are then added and the mixture, followed by delivery of ^33P-ATP (specific activity 0.01 μCi/μl final) to initiate the reaction. […] The entire reaction mixture is washed through onto a P81 Phosphocellulose paper and washed three times for 10 minutes in 75 mM phosphoric acid and once in methanol prior to drying and scintillation counting.

In experiment [2] the target is PASK (Homo sapiens (Human), UniProt Q96RG2). Briefly: PAS Kinase FRET Assay. It is filed as biochemical. Conditions: TR-FRET, Ulight-peptide substrate; read-out: IC50 Kinase Domain. An excerpt:
PAS Kinase FRET Assay The aim of the FRET assay is to determine the inhibition potential of test compounds on targeted kinase. This assay platform provides a homogenous screening method for measuring kinase activity by quantitating the amount of phospho-substrate in solution following a kinase reaction. In the presence of kinase and ATP, the Ulight-peptide is phosphorylated and captured by an anti-phospho-substrate antibody, which brings the Eu chelate donor and Ulight acceptor dyes into close proximity. […] The contents of the plate were and incubated at RT for 1 h. The reaction was stopped by adding 5 μl of stop solution to each test well followed by mixing and incubation at RT for 10 minutes. 5 μl of detection mix (detection antibody diluted in detection buffer) was added; the contents of the plate were mixed and then incubated in the dark for 1 hour at RT. […] The results were graphed to calculate the EC50. Titration of ATP at the EC50 concentration of kinase to determine ATP Km,app. was performed using the following method. […] The contents of the plate were and incubated at RT for 1 h. The reaction was stopped by adding 5 μl of stop solution to each test well followed by mixing and incubation at RT for 10 minutes. 5 μl of detection mix (detection antibody diluted in detection buffer) was added; the contents of the plate were mixed and then incubated in the dark for 1 hour at RT. […] The results were graphed to calculate the EC50 as the ATP Km,app. […] If compound is not soluble under this condition, it was diluted to 3 mM. Kinase reaction buffer was prepared containing 10 mM MgCl2, 50 mM HEPES, 1 mM EGTA, 0.01% TWEEN-20, 2 mM DTT. […] As a positive control, 2.5 μl of positive compound was added to assay wells, and 2.5 μl of DMSO to assay wells as vehicle control. Kinase solution was prepared in reaction buffer at 2× final assay concentration. Kinase solution (5 μl) was added to each well of the assay plate. The substrate and ATP solution was prepared in kinase reaction buffer at 4× final assay concentration. The kinase reaction was started by adding 2.5 μl of substrate+ATP mix solution to each well of the assay plate. The plate is mixed on a plate shaker; then covered and allowed to react for 2 hours in the dark at 25° C. without shaking. The reaction was stopped by adding 5 μl of stop solution to each test well followed by mixing and incubation at RT for 10 minutes in the dark. 5 μl of detection mix (detection antibody diluted in detection buffer) was added; the contents of the plate were mixed and then incubated in the dark for 1 hour at RT.
In general terms: Time-resolved FRET reads energy transfer from a long-lived donor to a nearby acceptor.

Structures are written as SMILES. pIC50: −log10 of the molar value.

PASK (Homo sapiens (Human), UniProt Q96RG2), sequence (Q96RG2 999-1251): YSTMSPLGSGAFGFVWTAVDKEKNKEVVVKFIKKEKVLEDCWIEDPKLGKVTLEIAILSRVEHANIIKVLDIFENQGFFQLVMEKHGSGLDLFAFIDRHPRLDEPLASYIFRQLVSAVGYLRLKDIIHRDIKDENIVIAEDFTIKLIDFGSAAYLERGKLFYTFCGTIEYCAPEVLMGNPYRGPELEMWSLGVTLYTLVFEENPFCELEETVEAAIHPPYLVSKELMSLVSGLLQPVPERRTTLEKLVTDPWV
PASK (UniProt # Q96RG2; human recombinant N-terminal GST tagged construct, residues 879-1323) (Homo sapiens (Human), UniProt Q96RG2), sequence (Q96RG2 879-1323, change not shown): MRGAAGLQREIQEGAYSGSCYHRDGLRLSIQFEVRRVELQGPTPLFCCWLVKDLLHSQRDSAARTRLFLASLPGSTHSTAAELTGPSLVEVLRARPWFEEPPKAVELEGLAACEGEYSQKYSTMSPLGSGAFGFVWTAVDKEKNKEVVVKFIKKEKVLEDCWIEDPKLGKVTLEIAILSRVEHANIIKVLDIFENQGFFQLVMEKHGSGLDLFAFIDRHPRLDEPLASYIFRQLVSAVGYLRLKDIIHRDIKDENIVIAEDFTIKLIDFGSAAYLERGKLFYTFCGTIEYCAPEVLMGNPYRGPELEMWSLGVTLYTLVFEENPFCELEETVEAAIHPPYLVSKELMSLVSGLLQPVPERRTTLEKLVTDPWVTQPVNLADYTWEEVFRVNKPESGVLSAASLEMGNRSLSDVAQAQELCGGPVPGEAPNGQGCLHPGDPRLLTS

For `COc1ccc(N2CCN(c3nc4cc(C(=O)O)ccc4nc3-c3ccccc3)CC2)cc1` [Example 9, 3-(4-(4-Methoxyphenyl)piperazin-1-yl)-2-phenylquinoxaline-6-carboxylic acid], the pIC50 (usually the negative decadic logarithm of the IC50, by convention in mol/L) at PASK [1] was greater than 5.00.

Turning to `O=C(O)c1ccc2nc(-c3ccccc3)c(N3CCC(c4cccc(Cl)c4)CC3)nc2c1` [Example 10, 3-(4-(3-Chlorophenyl)piperidin-1-yl)-2-phenylquinoxaline-6-carboxylic acid], the pIC50 on PASK [1] was greater than 5.00.

Turning to `O=C(O)c1ccc2nc(-c3ccccc3)c(N3CCCCC3)nc2c1` [Example 12, 2-Phenyl-3-(piperidin-1-yl)quinoxaline-6-carboxylic acid], at PASK [1], the negative-log IC50 (pIC50) was greater than 5.00.

For `O=C(O)c1ccc2nc(-c3ccccc3)c(N3CCC(c4ccccc4)CC3)nc2c1` [Example 13, 2-Phenyl-3-(4-phenylpiperidin-1-yl)quinoxaline-6-carboxylic acid], the pIC50 on PASK [1] was greater than 5.00.

Take `O=C(O)c1ccc2nc(-c3ccccc3)c(N3CCCCCC3)nc2c1` [Example 14, 3-(Azepan-1-yl)-2-phenylquinoxaline-6-carboxylic acid]: the pIC50 at PASK [1] was greater than 5.00.

Regarding `O=C(O)c1ccc2nc(-c3ccccc3)c(N3CCC(c4ccc(Cl)cc4)CC3)nc2c1` [Example 15, 3-(4-(4-Chlorophenyl)piperidin-1-yl)-2-phenylquinoxaline-6-carboxylic acid], at PASK [1], the negative logarithm of the IC50 (pIC50) is greater than 5.00.

Turning to `O=C(O)c1ccc2nc(-c3ccccc3)c(N3CCCc4ccccc43)nc2c1` [Example 40, 3-(3,4-Dihydroquinolin-1(2H)-yl)-2-phenylquinoxaline-6-carboxylic acid], the negative logarithm of the IC50 (pIC50) is greater than 5.00 on PASK [1] and no less than 5.00 at PASK [2].

For the compound `CC(C)N(C)c1nc2cc(C(=O)O)ccc2nc1-c1ccccc1` [Example 43, 3-(Isopropyl(methyl)amino)-2-phenylquinoxaline-6-carboxylic acid], the pIC50 on PASK [1] was greater than 5.00; at PASK [2], no less than 5.00.

In the case of `CN(c1nc2cc(C(=O)O)ccc2nc1-c1ccccc1)C1CC1` [Example 46, 3-(Cyclopropyl(methyl)amino)-2-phenylquinoxaline-6-carboxylic acid], the pIC50 was greater than 5.00 at PASK [1] and no less than 5.00 on PASK [2].

For `COC[C@H]1CCCN1c1nc2cc(C(=O)O)ccc2nc1-c1ccccc1` [Example 51, (R)-3-(2-(Methoxymethyl)pyrrolidin-1-yl)-2-phenylquinoxaline-6-carboxylic acid], the pIC50 at PASK [1] was greater than 5.00; on PASK [2], no less than 5.00.

Consider `O=C(O)c1ccc2nc(-c3ccccc3)c(N3CCC[C@@H]3CO)nc2c1` [Example 52, (R)-3-(2-(Hydroxymethyl)pyrrolidin-1-yl)-2-phenylquinoxaline-6-carboxylic acid], for which the pIC50 at PASK [1] is greater than 5.00; at PASK [2] it was no less than 5.00.

As for `CC(C)N(C)c1nc2cc(C(=O)O)ccc2nc1-c1ccc(F)cc1` [Example 57, 2-(4-Fluorophenyl)-3-(isopropyl(methyl)amino)quinoxaline-6-carboxylic acid], the pIC50 is greater than 5.00 at PASK [1] and no less than 5.00 at PASK [2].

Regarding `COc1ccc(-c2nc3ccc(C(=O)O)cc3nc2N(C)C(C)C)cc1` [Example 58, 3-(Isopropyl(methyl)amino)-2-(4-methoxyphenyl)quinoxaline-6-carboxylic acid], the figures for the pIC50 on PASK [1] and at PASK [2] were greater than 5.00 and no less than 5.00, respectively.

With `CC(C)N(C)c1nc2cc(C(=O)O)ccc2nc1-c1ccc(F)c(F)c1` [Example 63, 2-(3,4-Difluorophenyl)-3-(isopropyl(methyl)amino)quinoxaline-6-carboxylic acid], the values for the pIC50 at PASK [1] and at PASK [2] were greater than 5.00 and no less than 5.00, respectively.

Consider `CC(C)N(C)c1nc2cc(C(=O)O)ccc2nc1-c1ccc(Cl)cc1` [Example 64, 2-(4-Chlorophenyl)-3-(isopropyl(methyl)amino)quinoxaline-6-carboxylic acid], for which the pIC50 on PASK [1] is greater than 5.00; on PASK [2] it was no less than 5.00.

Consider `O=C(O)c1ccc2nc(-c3ccccc3)c(N3CCC[C@@H]3C(F)(F)F)nc2c1` [Example 65, (R)-2-Phenyl-3-(2-(trifluoromethyl)pyrrolidin-1-yl)quinoxaline-6-carboxylic acid], for which the pIC50 on PASK [1] is greater than 5.00; on PASK [2] it was no less than 5.00.

On to `COc1ccc2c(c1)CCCN2c1nc2cc(C(=O)O)ccc2nc1-c1ccccc1` [Example 66, 3-(6-Methoxy-3,4-dihydroquinolin-1(2H)-yl)-2-phenylquinoxaline-6-carboxylic acid], for which the figures for the negative logarithm of the IC50 (pIC50) at PASK [1] and at PASK [2] were greater than 5.00 and no less than 5.00, respectively.

Turning to `O=C(O)c1ccc2nc(-c3ccc(F)cc3)c(N3CCCCC3)nc2c1` [Example 75, 2-(4-Fluorophenyl)-3-(piperidin-1-yl)quinoxaline-6-carboxylic acid], the negative logarithm of the IC50 (pIC50) is greater than 5.00 at PASK [1] and no less than 5.00 at PASK [2].

In the case of `O=C(O)c1ccc2nc(-c3ccc(F)cc3)c(N3CCCCCC3)nc2c1` [Example 76, 3-(Azepan-1-yl)-2-(4-fluorophenyl)quinoxaline-6-carboxylic acid], the results for the pIC50 on PASK [1] and at PASK [2] were greater than 5.00 and no less than 5.00, respectively.

Take `CC(C)N(C)c1nc2cc(C(=O)O)ccc2nc1-c1ccc2c(c1)OCO2` [Example 77, 2-(Benzo[d][1,3]dioxol-5-yl)-3-(isopropyl(methyl)amino)quinoxaline-6-carboxylic acid]: the pIC50 on PASK [1] was greater than 5.00; at PASK [2], no less than 5.00.

On to `COCC1CCCN(c2nc3cc(C(=O)O)ccc3nc2-c2ccc(F)cc2)C1` (centres unmarked) [Example 78, 2-(4-Fluorophenyl)-3-(3-(methoxymethyl)piperidin-1-yl)quinoxaline-6-carboxylic acid], for which the results for the pIC50 on PASK [1] and at PASK [2] were greater than 5.00 and no less than 5.00, respectively.

Regarding `CC1(C)CCCN(c2nc3cc(C(=O)O)ccc3nc2-c2ccc(F)cc2)C1` [Example 79, 3-(3,3-Dimethylpiperidin-1-yl)-2-(4-fluorophenyl)quinoxaline-6-carboxylic acid], the pIC50 is greater than 5.00 at PASK [1] and no less than 5.00 on PASK [2].

Turning to `CC1CCCN(c2nc3cc(C(=O)O)ccc3nc2-c2ccc(F)cc2)C1` (centres unmarked) [Example 80, 2-(4-Fluorophenyl)-3-(3-methylpiperidin-1-yl)quinoxaline-6-carboxylic acid], the pIC50 is greater than 5.00 on PASK [1] and no less than 5.00 at PASK [2].

As to `CC(C)N(C)c1nc2cc(C(=O)O)ccc2nc1-c1ccc2c(c1)OCCO2` [Example 81, 2-(2,3-Dihydrobenzo[b][1,4]dioxin-6-yl)-3-(isopropyl(methyl)amino)quinoxaline-6-carboxylic acid], the pIC50 at PASK [1] is greater than 5.00; on PASK [2], no less than 5.00.

Regarding `C[C@H]1CCCN1c1nc2cc(C(=O)O)ccc2nc1-c1ccc2c(c1)OCO2` [Example 83, 2-(Benzo[d][1,3]dioxol-5-yl)-3-((S)-2-methylpyrrolidin-1-yl)quinoxaline-6-carboxylic acid], the pIC50 is greater than 5.00 at PASK [1] and no less than 5.00 at PASK [2].

With `CC(C)N(C)c1nc2cc(C(=O)O)ccc2nc1-c1ccc2[nH]ccc2c1` [Example 84, 2-(1H-Indol-5-yl)-3-(isopropyl(methyl)amino)quinoxaline-6-carboxylic acid], the values for the pIC50 on PASK [1] and at PASK [2] were greater than 5.00 and no less than 5.00, respectively.

On to `CC(C)N(C)c1nc2cc(C(=O)O)ccc2nc1-c1ccncc1` [Example 87, 3-(Isopropyl(methyl)amino)-2-(pyridin-4-yl)quinoxaline-6-carboxylic acid], for which the pIC50 on PASK [1] is greater than 5.00; on PASK [2], no less than 5.00.

`CC(C)N(C)c1nc2cc(C(=O)O)ccc2nc1-c1cc2ccccc2o1` [Example 89, 2-(Benzofuran-2-yl)-3-(isopropyl(methyl)amino)quinoxaline-6-carboxylic acid]: the pIC50 on PASK [1] was greater than 5.00; on PASK [2], no less than 5.00.
